Experimental data from PubChem BioAssay (NCI).
Values joined by “and” are separate entries in the source; they are usually repeats but may differ in a detail not shown here. Equal entries are not always repeated.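 Step 1: Grow cells in 96-well plates. Step 2: Expose to compound for 48 hours at 5 concentrations. Step 3: Interpolate endpoints linearly; if unreached, use highest concentration. GI50 is the concentration that inhibits growth by half. The concentration for full growth arrest is given as TGI.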

Key:
Test in all cases: NCI anticancer screen, dose series, 48 h
786-0 renal = test system: 786-0 renal
A498 renal = test system: A498 renal
HOP-92 NSCLC = test system: HOP-92 NSCLC
HT29 colon = test system: HT29 colon
K-562 leukemia = test system: K-562 leukemia
KM12 colon = test system: KM12 colon
SF-539 CNS = test system: SF-539 CNS
SNB-19 CNS = test system: SNB-19 CNS
SW-620 colon = test system: SW-620 colon
U251 CNS = test system: U251 CNS

SMILES	TGI (786-0 renal)	TGI (A498 renal)	TGI (HOP-92 NSCLC)	TGI (HT29 colon)	TGI (K-562 leukemia)	TGI (KM12 colon)	TGI (SF-539 CNS)	TGI (SNB-19 CNS)	TGI (SW-620 colon)	TGI (U251 CNS)	GI50 (786-0 renal)	GI50 (A498 renal)	GI50 (HOP-92 NSCLC)	GI50 (HT29 colon)	GI50 (K-562 leukemia)	GI50 (KM12 colon)	GI50 (SF-539 CNS)	GI50 (SNB-19 CNS)	GI50 (SW-620 colon)	GI50 (U251 CNS)
CN(C)CCNC(=O)c1ccc(C(=O)NCCN(C)C)c2nc3ccccc3cc12	13.8 µM	3.93 µM	7.99 µM	6.15 µM	> 30 µM	4.14 µM	2.01 µM	11.3 µM	9.56 µM	7.85 µM	–	–	–	–	–	–	–	–	–	–
O=C(O)C12C3C4C1C1C2C3C1(Br)C41OCCO1 (stereo unspecified)	> 100 µM	> 100 µM	> 100 µM	> 100 µM	> 100 µM	> 100 µM	> 100 µM	> 100 µM	> 100 µM	> 100 µM	–	–	–	–	–	–	–	–	–	–
C[C@H]1[C@H](C)CC[C@]2(C(=O)N3CCN(C)CC3)CC[C@]3(C)C(=CC[C@@H]4[C@@]5(C)C/C(=C/c6cccnc6)C(=O)C(C)(C)[C@@H]5CC[C@]43C)[C@H]12	2 µM	2.92 µM	1.84 µM	2.67 µM	> 100 µM	2.56 µM	2.78 µM	2.23 µM	2.51 µM	1.87 µM	0.67 µM	1.52 µM	0.446 µM	0.926 µM	1.67 µM	0.976 µM	1.44 µM	0.956 µM	0.924 µM	0.547 µM
COc1cc(Cn2c(=S)ss/c2=N\C(=S)N(C)C)cc(OC)c1OC	> 91.3 µM	> 100 µM	56.3 µM	> 100 µM	> 100 µM	30.5 µM	> 57.7 µM	> 100 µM	> 100 µM	> 82 µM	–	–	–	–	–	–	–	–	–	–
CC(/C(=N/NC(=O)C(N)=O)c1c(Cl)ccc(Cl)c1O)C1(O)C(=O)Nc2ccccc21 (stereo unspecified)	> 100 µM	76.9 µM	75.2 µM	> 100 µM	> 100 µM	> 100 µM	> 100 µM	> 100 µM	> 100 µM	> 100 µM	–	–	–	–	–	–	–	–	–	–
COc1ccc(-c2cnnn2-c2cc(OC)c3c(c2)OCO3)cc1	> 36.6 µM	0.633 µM	24.8 µM	–	> 100 µM	> 30.8 µM	0.411 µM	> 100 µM	> 100 µM	> 100 µM	0.544 µM	0.0444 µM	0.187 µM	0.0454 µM	0.0417 µM	0.0564 µM	0.116 µM	–	0.0531 µM	0.231 µM
O=C1C=C[C@@]23C[C@@H](Nc4c(O)c5c6c(c42)=NCCC=6C=N5)SC3=C1	14.6 µM	25.3 µM	10.2 µM	7.39 µM	> 21.9 µM	18.5 µM	9.58 µM	30.6 µM	3.31 µM	7.92 µM	4.34 µM	9.04 µM	3.18 µM	–	2.66 µM	–	3.08 µM	–	1.68 µM	2.72 µM
COc1ccc(C/C(C)=C(\c2ccc(OCCN3CCOCC3)cc2)c2ccc(OC(=O)Cc3ccccc3)cc2)cc1	0.994 µM	0.971 µM	0.901 µM	0.716 µM	1.66 µM	3.37 µM	0.977 µM	8.34 µM	1.8 µM	0.965 µM	0.51 µM	0.462 µM	0.28 µM	0.288 µM	0.456 µM	1.14 µM	0.513 µM	1.3 µM	0.742 µM	0.501 µM
CS(=O)(=O)OCCn1cnc2nc(NC(=O)c3ccccc3)[nH]c(=O)c21	> 100 µM	> 100 µM	> 100 µM	> 100 µM	> 100 µM	> 100 µM	> 100 µM	> 100 µM	> 100 µM	> 100 µM	–	–	–	–	–	–	–	–	–	–
COc1cc(C(O)c2nc3ccccc3s2)cc(OC)c1OC (stereo unspecified)	> 100 µM	> 100 µM	31.2 µM	> 100 µM	> 100 µM	> 100 µM	> 100 µM	> 100 µM	> 100 µM	> 100 µM	> 100 µM	3.18 µM	1.15 µM	> 100 µM	3.6 µM	78.3 µM	> 100 µM	> 100 µM	> 100 µM	> 100 µM
COc1ccc(-c2nnc(SCC(=O)Nc3ccc(/C(C)=N\O)cc3)n2-c2ccccc2)cc1OC	> 100 µM	46.1 µM	6.42 µM	> 100 µM	> 100 µM	> 100 µM	38.9 µM	> 100 µM	> 100 µM	19.6 µM	14.9 µM	2.72 µM	2.12 µM	> 100 µM	> 100 µM	> 100 µM	4.77 µM	6.43 µM	> 100 µM	3.61 µM
Nc1ncnc2c1ncn2CC(O)C(=O)O (stereo unspecified)	> 100 µM	> 100 µM	> 100 µM	> 100 µM	> 100 µM	> 100 µM	> 100 µM	> 100 µM	> 100 µM	> 100 µM	–	–	–	–	–	–	–	–	–	–
Cc1cccc(NC(=O)c2cc3cc(N=Nc4ccccc4Cl)ccc3oc2=O)c1	> 100 µM	> 100 µM	76.1 µM	> 100 µM	> 100 µM	48.4 µM	94.9 µM	> 100 µM	> 100 µM	> 100 µM	–	–	–	–	–	–	–	–	–	–
CCCCCCCCCCC(O)[C@H]1CCC(C2CC[C@H]([C@H](O)CCCCCCCCCCC(O)CC3=CC(C)OC3=O)O2)O1 (stereo partly specified)	7.1 µM	9.03 µM and 53.2 µM	5.87 µM and 6.72 µM	2.88 µM and 14.4 µM	4.55 µM	3.66 µM	2.9 µM and 5.61 µM	6.96 µM and 32.1 µM	6.83 µM and 12 µM	> 100 µM	2.68 µM	3.15 µM	–	–	< 0.01 µM	–	–	2.05 µM	2.51 µM	3.58 µM
Cc1ccc(/C=C2/SC(Nc3nc(-c4nc(NC5=NC(=O)/C(=C\c6ccc(C)cc6)S5)sc4C)c(C)s3)=NC2=O)cc1	8.4 µM	7.52 µM	> 47.8 µM	> 50 µM	> 50 µM	18.6 µM	1.84 µM	> 50 µM	> 50 µM	38.9 µM	0.487 µM	1.4 µM	17.1 µM	3.62 µM	0.418 µM	0.289 µM	0.379 µM	10.1 µM	0.714 µM	0.322 µM
